Substitutions are numbered along the chain they refer to. Non-standard residues stand in square brackets, D forms with d. Residues, ends and D or L forms follow the SMILES beside them. No end group written: not given here. hArg = N=C(N)NCCCC[C@H](N)C(=O)O; Ac5c = NC1(C(=O)O)CCCC1; Aib = CC(C)(N)C(=O)O
What was measured:
[1] = molecular target: T1, PTH1R‐WT (Homo sapiens, UniProt Q03431); test: GloSensor cAMP signaling assay in transiently transfected GS-22a cells; type: cell-based; conditions: for EC50: Table 2, N-terminal analogs, means of four or three (M-PTH(1-11)) experiments, each in duplicate; for EC50 / pEC50: GS-22a cells; for Emax: Table 2, percent of maximum response of the same ligand on PTHR1-WT, four or three (M-PTH(1-11)) experiments; for pEC50: Suppl. Table 2, full-length ligands, mean ± SEM of three experiments, SEM; for Emax, %: Suppl. Table 2, percent of maximum response of the same ligand on PTH1R-WT, three experiments
T1 construct: expressed in transfected cells; plasmid TG-906 made by VectorBuilder
T1 sequence (Q03431 27-593 E90Y/S91D/E92V/E93P/K95Y/E96A): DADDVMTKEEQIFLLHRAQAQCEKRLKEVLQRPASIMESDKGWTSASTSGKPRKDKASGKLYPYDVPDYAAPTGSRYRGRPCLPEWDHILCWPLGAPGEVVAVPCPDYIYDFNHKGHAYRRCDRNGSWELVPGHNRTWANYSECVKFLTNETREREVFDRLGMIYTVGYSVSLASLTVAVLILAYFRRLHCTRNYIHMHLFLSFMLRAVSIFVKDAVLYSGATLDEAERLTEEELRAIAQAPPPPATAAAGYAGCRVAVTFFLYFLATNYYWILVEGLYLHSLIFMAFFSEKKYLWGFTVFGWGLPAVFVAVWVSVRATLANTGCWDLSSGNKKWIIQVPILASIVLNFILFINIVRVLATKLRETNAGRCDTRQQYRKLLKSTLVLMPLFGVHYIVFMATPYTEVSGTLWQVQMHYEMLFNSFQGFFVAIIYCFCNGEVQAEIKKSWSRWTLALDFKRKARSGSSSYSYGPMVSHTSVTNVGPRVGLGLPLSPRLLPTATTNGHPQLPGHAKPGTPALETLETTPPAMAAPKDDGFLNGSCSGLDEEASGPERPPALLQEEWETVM
Experimental: (§1) GS‐22a cells are derived from HEK293 cells (American Type Culture Collection [ATCC], Manassas, VA, USA; CRL‐1573) by stably transfection with the luciferase‐based GloSensor (Promega, San Luis Obispo, CA, USA) cAMP reporter plasmid pGloSensor‐22F. The cells were cultured in Dulbecco's modified Eagle medium (DMEM) supplemented with fetal bovine serum (10%) in a humidified incubator containing 5% CO2 and set at 37°C, and seeded into 96‐well or six‐well plates for transient DNA transfection and functional assays. Cells were transfected when the monolayers were 85%–95% of confluency using Lipofectamine™ 2000 (Thermo Fisher Scientific, Waltham, MA, USA) and 100 ng of DNA per well for 96‐well plates and 1000 ng of DNA per well for six‐well plates. Assays were performed 48 hours after transfection, and media was changed 2–4 hours prior to assay.
(§2) PTH1R‐mediated cAMP signaling was assessed via the GloSensor cAMP reporter in GS‐22a cells in white 96‐well plates. Assays were performed at ambient room temperature. For each plate, the media was replaced with CO2‐independent media (Thermo Fisher Scientific; Cat. No. 18045088) containing luciferin (0.5mM) and the plate was placed into a PerkinElmer Envision plate reader and cAMP‐dependent luminescence, as counts per second (cps), was measured at 2‐minute intervals for 15 minutes, during which time luciferin uptake occurred and luminescence reached a near steady‐state baseline. The plate was then removed from the plate reader, media (vehicle) or test ligands were added at varying concentrations, and luminescence was again measured at 2‐minute intervals for an additional 30–60 minutes.
(§3) Data were processed using Microsoft Excel and GraphPad Prism 8.0 software and analyzed statistically using a Student's t test (two‐tailed and unequal variances). Dose–response curves were fit to the data by using a three‐parameter sigmoidal dose–response equation with nonlinear regression, which yielded the reported response parameters of potency (EC50), efficacy (Emax), and […].

[2] = molecular target: T2, PTH1R‐R186H (Homo sapiens, UniProt Q03431, R186H); test: as above; type: cell-based; conditions: for EC50: Table 2, N-terminal analogs, means of four or three (M-PTH(1-11)) experiments, each in duplicate; for EC50 / pEC50: GS-22a cells; for pEC50: Suppl. Table 2, full-length ligands, mean ± SEM of three experiments; for Emax, %: Suppl. Table 2, percent of maximum response of the same ligand on PTH1R-WT, three experiments
T2 construct: expressed in transfected cells; plasmid TG-907 made by VectorBuilder
T2 sequence (Q03431 27-593 E90Y/S91D/E92V/E93P/K95Y/E96A/R186H): T1 sequence (Q03431 27-593 E90Y/S91D/E92V/E93P/K95Y/E96A) with R160H
Experimental: as §1, §2, §3

[3] = molecular target: T3, PTH1R‐V204E (Homo sapiens, UniProt Q03431, V204E); test: as above; type: cell-based; conditions: for EC50: Table 2, N-terminal analogs, means of four or three (M-PTH(1-11)) experiments, each in duplicate; for EC50 / pEC50: GS-22a cells; for pEC50: Suppl. Table 2, full-length ligands, mean ± SEM of three experiments; for Emax, %: Suppl. Table 2, percent of maximum response of the same ligand on PTH1R-WT, three experiments
T3 construct: expressed in transfected cells; plasmid TG-928 made by VectorBuilder
T3 sequence (Q03431 27-593 E90Y/S91D/E92V/E93P/K95Y/E96A/V204E): T1 sequence (Q03431 27-593 E90Y/S91D/E92V/E93P/K95Y/E96A) with V178E
Experimental: as §1, §2, §3

[4] = molecular target: T4, PTH1R‐P132L (Homo sapiens, UniProt Q03431, P132L); test: as above; type: cell-based; conditions: Table 1, percent of maximum response of the same ligand on PTH1R-WT, mean ± SEM of five experiments
T4 construct: expressed in transfected cells; plasmid TG-395 in pCDNA1
T4 sequence (Q03431 27-593 E90Y/S91D/E92V/E93P/K95Y/E96A/P132L): T1 sequence (Q03431 27-593 E90Y/S91D/E92V/E93P/K95Y/E96A) with P106L
Experimental: as §1, §2, §3

[5] = molecular target: HA‐tagged human PTH1R‐V204E (human) (UniProt Q03431)
[6] = Table 2, percent of maximum response of the same ligand on PTHR1-WT, four or three (M-PTH(1-11)) experiments
[7] = Table 1, percent of maximum response of the same ligand on PTH1R-WT, mean ± SEM of five experiments, SEM

Compound | EC50 [1] | Emax [1] | EC50 [2] | Emax [2, 6] | EC50 [3] | Emax [3, 6] | pEC50 [1] | Emax, % [1] | pEC50 ([2]; SEM) | Emax, % [2] | pEC50 ([3]; SEM) | Emax, % [3] | other results
CC[C@H](C)[C@H](NC(=O)[C@H](CCC(=O)O)NC(=O)C(C)(C)NC(=O)[C@@H](NC(=O)C1(N)CCCC1)C(C)C)C(=O)N[C@@H](CCC(N)=O)C(=O)N[C@@H](CC(C)C)C(=O)N[C@@H](CCSC)C(=O)N[C@@H](Cc1c[nH]cn1)C(=O)N[C@@H](CCC(N)=O)C(=O)N[C@@H](CCCCNC(=N)N)C(N)=O [M‐PTH(1‐11), modified (M)‐PTH(1‐11)] (H-[Ac5c]V[Aib]EIQLMHQ[hArg]-NH2) | 0.191 nM | 100% | 2.82 nM | 126 ± 14% | 0.759 nM | 80 ± 11% |  |  |  |  |  |  | 
CC[C@H](C)[C@H](NC(=O)[C@H](CCC(=O)O)NC(=O)[C@H](CO)NC(=O)[C@@H](NC(=O)[C@@H](N)CO)C(C)C)C(=O)N[C@@H](CCC(N)=O)C(=O)N[C@@H](CC(C)C)C(=O)N[C@@H](CCSC)C(=O)N[C@@H](Cc1c[nH]cn1)C(=O)N[C@@H](CC(N)=O)C(=O)N[C@@H](CC(C)C)C(=O)NCC(=O)N[C@@H](CCCCN)C(=O)N[C@@H](Cc1c[nH]cn1)C(=O)N[C@@H](CC(C)C)C(=O)N[C@@H](CC(N)=O)C(=O)N[C@@H](CO)C(=O)N[C@@H](CCSC)C(=O)N[C@@H](CCC(=O)O)C(=O)N[C@@H](CCCNC(=N)N)C(=O)N[C@H](C(=O)N[C@@H](CCC(=O)O)C(=O)N[C@@H](Cc1c[nH]c2ccccc12)C(=O)N[C@@H](CC(C)C)C(=O)N[C@@H](CCCNC(=N)N)C(=O)N[C@@H](CCCCN)C(=O)N[C@@H](CCCCN)C(=O)N[C@@H](CC(C)C)C(=O)N[C@@H](CCC(N)=O)C(=O)N[C@@H](CC(=O)O)C(=O)N[C@H](C(=O)N[C@@H](Cc1c[nH]cn1)C(=O)N[C@@H](CC(N)=O)C(=O)N[C@@H](Cc1ccccc1)C(N)=O)C(C)C)C(C)C [PTH(1‐34), human(h)PTH(1‐34)] |  |  |  |  |  |  |  |  |  |  |  |  | Emax [4]: ~45%; Emax, % ([4]; SEM): 44 ± 4%; Emax [2, 7]: 118 ± 4%; Emax [3, 7]: 81 ± 4%
SVSEIQLMHNLGKHLNSMERVEWLRKKL-NH2 [PTH(1‐28), hPTH(1‐28)] | 0.776 nM | 100% | 0.575 nM | 98 ± 10% | 0.447 nM | 78 ± 10% |  |  |  |  |  |  | 
hPTH(1‐84) [PTH(1-84)] |  |  |  |  |  |  | 9.05 | 100 ± 0% | 9.25 | 96 ± 4% | 9.19 | 115 ± 11% | 
hPTHrP(1‐141) [PTHrP(1-141)] |  |  |  |  |  |  | 8.65 | 100 ± 0% | 8.90 | 108 ± 3% | 8.55 | 133 ± 12% | 
human(h)PTH(1‐34) (peptide) |  |  |  |  |  |  |  |  |  |  |  |  | cAMP‐dependent GloSensor luminescence in transfected GS‐22a cells, potency: pEC50 with EC50 (nM) in parentheses [5]: 0.33 nM

Reference: PMC9189904, “Functional Properties of Two Distinct PTH1R Mutants Associated With Either Skeletal Defects or Pseudohypoparathyroidism” (JBMR Plus, 2022)
